Data: US7547690B2, “Compounds for the treatment of Hepatitis C” (Bristol-Myers Squibb Company, priority 2007, dated 2009)
Where two headings read alike, the source gives them in different places.

Key:
[1] = system: HCV replicon cells; assay: HCV replicon FRET / luciferase assay; type: cell-based
Protocol: FRET Assay Preparation. The HCV FRET screening assay was performed in 96-well cell culture plates. The FRET peptide (Anaspec, Inc.) (Taliani et al., Anal. Biochem. 1996, 240, 60-67) contains a fluorescence donor, EDANS, near one end of the peptide and an acceptor, DABCYL, near the other end. The fluorescence of the peptide is quenched by […] resonance energy transfer (RET) between the donor and the acceptor, but as the NS3 protease cleaves the peptide the products are released from RET quenching and the fluorescence of the donor becomes apparent. The assay reagent was made as follows: 5× cell Luciferase cell culture lysis reagent from Promega (#E153A) diluted to 1× with dH2O, NaCl added to 150 mM final, the FRET peptide diluted to 20 μM final from a 2 mM stock.
To prepare plates, HCV replicon cells, with or without a Renilla luciferase reporter gene, were trypsinized and plated in a 96-well plate with titrated test compounds added in columns 3 through 12; columns 1 and 2 contained a control compound (HCV control inhibitor), and the bottom row contained cells with DMSO only. The plates were then placed in a CO2 incubator at 37° C.
Assays. Subsequent to addition of the test compounds described above (FRET Assay Preparation), at various times the plate was removed and Alamar blue solution (Trek Diagnostics, #00-100) was added to measure cellular toxicity. After reading in a Cytoflour 4000 instrument (PE Biosystems), plates were rinsed with PBS and then used for FRET assay by the addition of 30 ul of the FRET peptide assay reagent described above (FRET Assay Preparation) per well. The plate was then placed into the Cytoflour 4000 instrument which had been set to 340 excite/490 emission, automatic mode for up to 20 cycles and the plate read in a kinetic mode. Typically, the signal to noise using an endpoint analysis after the reads was at least three-fold. Alternatively, after Alamar blue reading, plates were rinsed with PBS, then used for luciferase assay using the Promega Dual-Glo Luciferase Assay System or the Promega EnduRen Live Cell Substrate assay.
Compound analysis was performed by quantification of the relative HCV replicon inhibition and the relative cytotoxicity values. To calculate cytoxicity values, the average Alamar Blue fluorescence signals from the control wells were set as 100% non-toxic. The individual signals in each of the compound test wells were then divided by the average control signal and multiplied by 100% to determine […]. To calculate the HCV replicon inhibition values, an average background value was obtained from the two wells containing the highest amount of HCV control inhibitor at the end of the assay period. These numbers were similar to those obtained from naïve Huh-7 cells. The background numbers were then subtracted from the average signal obtained from the control wells and this number was used as 100% activity. The individual signals in each of the compound test wells were then divided by the averaged control values after background subtraction and multiplied by 100% to determine percent activity. EC50 values were calculated as the concentration which caused a 50% reduction in FRET or luciferase activity. The two numbers generated for the compound plate, percent cytoxicity and percent activity, were used to determine compounds of interest for further analysis.

[2] = biological target: T1, HCV NS5B (Hepatitis C virus genotype 1b, UniProt Q9WMX2); assay: HCV NS5B RdRp enzyme assay (standard / modified); type: biochemical; conditions: standard or modified assay not specified
T1 construct: The protein was expressed with an 18 amino acid C-terminal truncation to enhance the solubility; made in house; host or cells: E. coli BL21(DE3)
Protocol: HCV NS5B RdRp cloning, expression, and purification. The cDNA encoding the NS5B protein of HCV, genotype 1b, was cloned into the pET21a expression vector. The protein was expressed with an 18 amino acid C-terminal truncation to enhance the solubility. The E. coli competent cell line BL21(DE3) was used for expression of the protein. Cultures were grown at 37° C. for ˜4 hours until the cultures reached an optical density of 2.0 at 600 nm. The cultures were cooled to 20° C. and induced with 1 mM IPTG. Fresh ampicillin was added to a final concentration of 50 μg/ml and the cells were grown overnight at 20° C.
Cell pellets (3 L) were lysed for purification to yield 15-24 mgs of purified NS5B. The lysis buffer consisted of 20 mM Tris-HCl, pH 7.4, 500 mM NaCl, 0.5% triton X-100, 1 mM DTT, 1 mM EDTA, 20% glycerol, 0.5 mg/ml lysozyme, 10 mM MgCl2, 15 ug/ml deoxyribonuclease I, and Complete TM protease inhibitor tablets (Roche). After addition of the lysis buffer, frozen cell pellets were resuspended using a tissue homogenizer. To reduce the viscosity of the sample, aliquots of the lysate were sonicated on ice using a microtip attached to a Branson sonicator. The sonicated lysate was centrifuged at 100,000×g for 1 hr at 4° C. and filtered through a 0.2 μm filter unit (Corning).
The protein was purified using two sequential chromatography steps: Heparin sepharose CL-6B and polyU sepharose 4B (Pharmacia). The chromatography buffers were identical to the lysis buffer but contained no lysozyme, deoxyribonuclease I, MgCl2 or protease inhibitor and the NaCl concentration of the buffer was adjusted according to the requirements for charging the protein onto the column. Each column was eluted with a NaCl gradient which varied in length from 5-50 column volumes depending on the column type. After the final chromatography step, the resulting purity of the enzyme is >90% based on SDS-PAGE analysis. The enzyme was aliquoted and stored at −80° C.
Standard HCV NS5B RdRp enzyme assay. HCV RdRp genotype 1b assays were run in a final volume of 60 μl in 96 well plates (Corning 3600). The assay buffer is composed of 20 mM Hepes, pH 7.5, 2.5 mM KCl, 2.5 mM MgCl2, 1 mM DTT, 1.6 U RNAse inhibitor (Promega N2515), 0.01 mg/ml BSA (Sigma B6917), and 2% glycerol. All compounds were serially diluted (3-fold) in DMSO and diluted further in water such that the final concentration of DMSO in the assay was 2%. HCV RdRp genotype 1b enzyme was used at a final concentration of 28 nM. A polyA template was used at 6 nM, and a biotinylated oligo-dT12 primer was used at 180 nM final concentration. Template was obtained commercially (Amersham 27-4110). Biotinylated primer was prepared by Sigma Genosys. 3H-UTP was used at 0.6 μCi (0.29 μM total UTP). Reactions were initiated by the addition of enzyme, incubated at 30 ° C. for 60 min, and stopped by adding 25 μl of 50 mM EDTA containing SPA beads (4 μg/μl, Amersham RPNQ 0007). Plates were read on a Packard Top Count NXT after >1 hr incubation at room temperature.
Modified HCV NS5B RdRp enzyme assay. A modified enzyme assay was performed essentially as described for the standard enzyme assay except for the following: The biotinylated oligo dT12 primer was precaptured on streptavidin-coated SPA beads by mixing primer and beads in assay buffer and incubating at room temperature for one hour. Unbound primer was removed after centrifugation. The primer-bound beads were resuspended in 20 mM Hepes buffer, pH 7.5 and used in the assay at final concentrations of 20 nM primer and 0.67 μg/μl beads. Order of addition in the assay: enzyme (1.75 nM) was added to diluted compound followed by the addition of a mixture of template (0.36 nM), 3H-UTP (0.6 μCi, 0.29 μM), and primer-bound beads, to initiate the reaction; concentrations given are final. Reactions were allowed to proceed for 4 hours at 30° C.
IC50 values for compounds were determined using seven different [I]. […]

[3] = Hepatitis C virus, 50% reduction in FRET or luciferase activity in HCV replicon cells, read-out: EC50
[4] = HCV RdRp genotype 1b, read-out: IC50

T1 sequence (Q9WMX2 2420-2992): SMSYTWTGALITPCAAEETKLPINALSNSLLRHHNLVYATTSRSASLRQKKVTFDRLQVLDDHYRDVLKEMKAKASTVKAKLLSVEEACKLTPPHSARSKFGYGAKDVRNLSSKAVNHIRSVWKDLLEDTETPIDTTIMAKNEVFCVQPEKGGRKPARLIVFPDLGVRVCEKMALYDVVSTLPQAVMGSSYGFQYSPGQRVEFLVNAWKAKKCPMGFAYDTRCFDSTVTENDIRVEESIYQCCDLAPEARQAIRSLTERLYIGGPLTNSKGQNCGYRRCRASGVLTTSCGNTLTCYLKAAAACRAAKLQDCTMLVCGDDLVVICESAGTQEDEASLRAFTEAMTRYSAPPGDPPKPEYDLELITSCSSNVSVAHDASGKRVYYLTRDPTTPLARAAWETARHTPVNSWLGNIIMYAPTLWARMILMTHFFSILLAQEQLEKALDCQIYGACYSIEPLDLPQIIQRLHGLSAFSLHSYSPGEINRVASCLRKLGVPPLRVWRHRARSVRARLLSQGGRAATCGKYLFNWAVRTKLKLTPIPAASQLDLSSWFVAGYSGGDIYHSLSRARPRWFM

Row | Compound | EC50 [1, 3] | IC50 [2, 4] | also measured
1 | COc1ccc2c(c1)C1CC1(C(=O)N1C3CC1CN(Cc1ccccc1)C3)Cn1c-2c(C2CCCCC2)c2ccc(C(=O)NS(=O)(=O)CC(F)(F)F)cc21 (stereo not shown) | 500 to 5000 nM | 2.4 to 500 nM | –
2 | COc1ccc2c(c1)[C@@H]1C[C@]1(C(=O)N1CC3CC1CN3C)Cn1c-2c(C2CCCCC2)c2ccc(C(=O)NS(=O)(=O)N(C)C)cc21 (stereo partly shown) | 2.4 to 500 nM | < 20 nM | –
3 | COc1ccc2c(c1)C1CC1(C(=O)N1C[C@@H]3C[C@H]1CN3CC(C)C)Cn1c-2c(C2CCCCC2)c2ccc(C(=O)NS(=O)(=O)C(C)C)cc21 (stereo partly shown) [drawing 94] | 2.4 to 500 nM | 2.4 to 500 nM | –
4 | CCN1CC2CC(C1)N2C(=O)C12CC1c1cc(OC)ccc1-c1c(C3CCCCC3)c3ccc(C(=O)NS(=O)(=O)C(C)C)cc3n1C2 (stereo not shown) | 2.4 to 500 nM | 2.4 to 500 nM | –
5 | CCC(C)S(=O)(=O)NC(=O)c1ccc2c(C3CCCCC3)c3n(c2c1)CC1(C(=O)N2C4CC2CN(Cc2ccccc2)C4)CC1c1cc(OC)ccc1-3 (stereo not shown) | 2.4 to 500 nM | 2.4 to 500 nM | –
6 | COCCN1CC2CCC1CN2C(=O)[C@]12C[C@H]1c1cc(OC)ccc1-c1c(C3CCCCC3)c3ccc(C(=O)NS(=O)(=O)C(C)C)cc3n1C2 (stereo partly shown) | 2.4 to 500 nM | 2.4 to 500 nM | –
7 | COc1ccc2c(c1)C1CC1(C(=O)N1[C@@H]3C[C@H]1CN(Cc1ccccc1)C3)Cn1c-2c(C2CCCCC2)c2ccc(C(=O)NS(=O)(=O)N(C)C)cc21 (stereo partly shown) | 2.4 to 500 nM | 2.4 to 500 nM | –
8 | COc1ccc2c(c1)[C@@H]1C[C@]1(C(=O)N1C3CCC1C1CCC3N1C)Cn1c-2c(C2CCCCC2)c2ccc(C(=O)NS(=O)(=O)N(C)C)cc21 [drawing 160] | – | – | EC50 ([1]; Hepatitis C virus): 2.4 to 500 nM; IC50 ([2]; IC50, HCV RdRp genotype 1b): 2.4 to 500 nM
9 | COc1ccc2c(c1)C1CC1(C(=O)N1C[C@@H]3C[C@H]1CN3)Cn1c-2c(C2CCCCC2)c2ccc(C(=O)NS(=O)(=O)C3CC3)cc21 (stereo partly shown) | – | 2.4 to 500 nM | –
10 | CCC(C)S(=O)(=O)NC(=O)c1ccc2c(C3CCCCC3)c3n(c2c1)CC1(C(=O)N2C4COCC2CN(C)C4)CC1c1cc(OC)ccc1-3 (stereo not shown) | – | 2.4 to 500 nM | –
11 | COc1ccc2c(c1)C1CC1(C(=O)N1C3CNCC1CN(C)C3)Cn1c-2c(C2CCCCC2)c2ccc(C(=O)NS(=O)(=O)N(C)C)cc21 (stereo not shown) | – | 2.4 to 500 nM | –
12 | COc1ccc2c(c1)[C@@H]1C[C@]1(C(=O)N1CC3CCC1CN3C)Cn1c-2c(C2CCCCC2)c2ccc(C(=O)NS(=O)(=O)C(C)C)cc21 (stereo partly shown) [drawing 129] | – | – | EC50 ([1]; 50% reduction in FRET or luciferase activity in HCV replicon cells, read-out: EC50): 2.4 to 500 nM
13 | COc1ccc2c(c1)[C@@H]1C[C@]1(C(=O)N1CC3CCC1CN3C)Cn1c-2c(C2CCCCC2)c2ccc(C(=O)NS(=O)(=O)C(C)C)cc21 (stereo partly shown) [drawing 128] | 2.4 to 500 nM | – | –
14 | COc1ccc2c(c1)C1CC1(NC(=O)N1CC3CN(Cc4ccccc4)CC(C1)N3Cc1ccccc1)Cn1c-2c(C2CCCCC2)c2ccc(C(=O)NS(=O)(=O)N(C)C)cc21 (stereo not shown) | – | 500 to 5000 nM | –
